From ChEMBL document CHEMBL1201862, “PubChem BioAssay data set” (2004)
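Step 1: Grow cells in 96-well plates. Step 2: Expose to compound for 48 hours at 5 concentrations. Step 3: Interpolate endpoints linearly; if unreached, use highest concentration. At the GI50, growth is halved.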 The source made the active and inactive calls. Rule as the data show it: active = GI50 up to about 1.1 µM and inactive = higher.

Key:
Test in all cases: inhibition of tumour cell growth, NCI panel, 48 h
ACHN = test system: ACHN
CCRF-CEM = test system: CCRF-CEM
EKVX = test system: EKVX
HCT-116 = test system: HCT-116
HL-60 = test system: HL-60
IGROV-1 = test system: IGROV-1
Malme-3M = test system: Malme-3M
NCI-H23 = test system: NCI-H23
NCI-H522 = test system: NCI-H522
OVCAR-8 = test system: OVCAR-8
RXF 393 = test system: RXF 393
SF-268 = test system: SF-268
SF-539 = test system: SF-539
SK-MEL-5 = test system: SK-MEL-5
Hs-578T = test system: Hs-578T
PC-3 = test system: PC-3
HOP-92 = test system: HOP-92
MDA-MB-231 = test system: MDA-MB-231
T47D = test system: T47D

| SMILES | GI50 (ACHN) | GI50 (CCRF-CEM) | GI50 (EKVX) | GI50 (HCT-116) | GI50 (HL-60) | GI50 (IGROV-1) | GI50 (Malme-3M) | GI50 (NCI-H23) | GI50 (NCI-H522) | GI50 (OVCAR-8) | GI50 (RXF 393) | GI50 (SF-268) | GI50 (SF-539) | GI50 (SK-MEL-5) | GI50 (Hs-578T) | GI50 (PC-3) | GI50 (HOP-92) | GI50 (MDA-MB-231) | GI50 (T47D) |
| --- | --- | --- | --- | --- | --- | --- | --- | --- | --- | --- | --- | --- | --- | --- | --- | --- | --- | --- | --- |
| CCC(Oc1ccc(OC)c2ccccc(=O)c12)C(=O)O (centres undefined) | > 100 µM (inactive) | > 100 µM (inactive) | > 100 µM (inactive) | > 100 µM (inactive) | > 100 µM (inactive) | > 100 µM (inactive) | > 100 µM (inactive) | > 100 µM (inactive) | > 100 µM (inactive) | > 100 µM (inactive) | > 100 µM (inactive) | > 100 µM (inactive) | > 100 µM (inactive) | > 100 µM (inactive) | – | – | – | – | – |
| O=c1cc2oc3ccc4ccccc4c3cc-2c(=O)[nH]1 | 17 µM (inactive) | 1.07 µM (active) | 18 µM (inactive) | 17.1 µM (inactive) | 1.51 µM (inactive) | 14.2 µM (inactive) | 16.2 µM (inactive) | 1.42 µM (inactive) | 9.12 µM (inactive) | 1.56 µM (inactive) | – | 12.7 µM (inactive) | 9.79 µM (inactive) | 15.5 µM (inactive) | 24.4 µM (inactive) | 10.6 µM (inactive) | – | – | – |
| CCC(C)C(=O)OC1CC2(C)C(c3ccoc3)OC(=O)CC23OC2(C)OC34C(OC(=O)C(C)C)C3(O)C(OC(=O)C5(C)OC5C)C5(C)CC3(O)C(C)(C5CC(=O)OC)C14O2 (centres undefined) | 37 µM (inactive) | 28.6 µM (inactive) | 24.3 µM (inactive) | 54.7 µM (inactive) | 15.6 µM (inactive) | 64.4 µM (inactive) | > 100 µM (inactive) | 54.3 µM (inactive) | 37 µM (inactive) | 52.6 µM (inactive) | – | 47.2 µM (inactive) | 15 µM (inactive) | 22.8 µM (inactive) | 14.5 µM (inactive) | 31.8 µM (inactive) | 36.8 µM (inactive) | 56.2 µM (inactive) | 23.1 µM (inactive) |
| O=C1c2ccccc2-c2ccc(/N=N/c3c(O)ccc4ccccc34)cc21 | – | 15.4 µM (inactive) | > 100 µM (inactive) | > 100 µM (inactive) | – | > 100 µM (inactive) | 19.7 µM (inactive) | > 100 µM (inactive) | > 100 µM (inactive) | > 100 µM (inactive) | > 100 µM (inactive) | > 100 µM (inactive) | – | > 100 µM (inactive) | > 100 µM (inactive) | > 100 µM (inactive) | > 100 µM (inactive) | > 100 µM (inactive) | > 100 µM (inactive) |
| OC1CSCCCSCCSCCCSC1 | > 100 µM (inactive) | – | > 100 µM (inactive) | > 100 µM (inactive) | – | > 100 µM (inactive) | – | > 100 µM (inactive) | > 100 µM (inactive) | > 100 µM (inactive) | > 100 µM (inactive) | > 100 µM (inactive) | > 100 µM (inactive) | > 100 µM (inactive) | > 100 µM (inactive) | > 100 µM (inactive) | > 100 µM (inactive) | > 100 µM (inactive) | > 100 µM (inactive) |
| O=C1CSC2=NC3=C(CSC/C3=C\c3ccc(Cl)cc3)C(c3ccc(Cl)cc3)N12 (centres undefined) | 16.9 µM (inactive) | 14.6 µM (inactive) | 27.4 µM (inactive) | 5.86 µM (inactive) | 22.2 µM (inactive) | 41.9 µM (inactive) | 40.6 µM (inactive) | 19.9 µM (inactive) | 12.5 µM (inactive) | 8.43 µM (inactive) | – | 41.2 µM (inactive) | – | 14.4 µM (inactive) | – | 5.22 µM (inactive) | 10.3 µM (inactive) | 21.8 µM (inactive) | 32.5 µM (inactive) |
| O=C(c1ccc2ccccc2c1)C1(I)S(=O)(=O)OCCOS1(=O)=O | > 100 µM (inactive) | > 100 µM (inactive) | > 100 µM (inactive) | > 100 µM (inactive) | > 100 µM (inactive) | – | > 100 µM (inactive) | > 100 µM (inactive) | – | > 100 µM (inactive) | – | – | – | > 100 µM (inactive) | – | > 100 µM (inactive) | – | > 100 µM (inactive) | – |
| Cc1ccc(S(=O)(=O)N(CCN2C(=O)c3ccccc3C2=O)c2cc3c4c(c2)Oc2cc(N(CCN5C(=O)c6ccccc6C5=O)S(=O)(=O)c5ccc(C)cc5)cc5c2C4(C)c2c(cc(N(CCN4C(=O)c6ccccc6C4=O)S(=O)(=O)c4ccc(C)cc4)cc2O5)O3)cc1 | > 100 µM (inactive) | > 100 µM (inactive) | > 100 µM (inactive) | > 100 µM (inactive) | > 100 µM (inactive) | 57.3 µM (inactive) | – | – | > 100 µM (inactive) | > 100 µM (inactive) | > 100 µM (inactive) | > 100 µM (inactive) | > 100 µM (inactive) | > 100 µM (inactive) | > 100 µM (inactive) | > 100 µM (inactive) | – | 4.89 µM (inactive) | > 100 µM (inactive) |
| O=C(NNC(=S)Nc1ccc(Br)cc1)c1cc(-c2ccccc2)nc2ccccc12 | 34.8 µM (inactive) | 22.1 µM (inactive) | – | 16.7 µM (inactive) | – | 37.8 µM (inactive) | 17.3 µM (inactive) | 23.6 µM (inactive) | 22.2 µM (inactive) | 23.1 µM (inactive) | 18.4 µM (inactive) | 33.3 µM (inactive) | 16.6 µM (inactive) | 15.8 µM (inactive) | 30.2 µM (inactive) | 20.1 µM (inactive) | 20 µM (inactive) | 18.6 µM (inactive) | 17.1 µM (inactive) |
